Data reported in patent US9782427B2, “Methods for treating cancer using TOR kinase inhibitor combination therapy” (Signal Pharmaceuticals, LLC, priority 2013, dated 2017).

Columns and labels:
Caov-3 = test: Cell viability (CellTiter-Glo) and combination index, ovarian cell line; type: cell-based; conditions: combination with VIDAZA, 3 days, CalcuSyn, Chou-Talalay
Description: (§1) Cell viability was assessed using the Cell Titer-Glo® Luminescent Cell Viability Assay, Catalog Number G7570 (Promega Corporation, Madison, Wis.). The assay is a homogenous method of determining the number of viable cells in culture based on quantitation of the adenosine triphosphate (ATP) present, an indicator of metabolically active cells. The homogenous assay procedure involves adding the single reagent (CellTiter-Glo Reagent) directly to cells cultured in serum-supplemented medium. Cells were plated into a 96-well flat bottom plate (Costar Catalog Number 33595) at densities that were previously optimized for each cell line. The cells were incubated overnight in 5% CO2 at 37° C. The following day, compound dilutions were prepared and all concentrations were assayed in triplicate. The cells were incubated with a TOR kinase inhibitor or a TOR kinase inhibitor and a second active agent, in 5% CO2 at 37° C. for 3 days. After a 3-day incubation period, 100 μL, of CellTiter-Glo reagent was added to each well for 2 min with shaking and further incubated for 10 min (no shaking) at room temperature to stabilize the signal. The luminescence was measured on the VICTOR X2 multilabel plate reader. The percent growth inhibition was calculated using the DMSO control in the same plate (no compound) response as 100% cell growth. For single compound treatments (TORKi and second active agents separately), the average values from triplicates were plotted to obtain IC50 values using software XLfit from IDBS. The formula used for determining IC50 in XLfit was model number 205, which utilizes a 4 Parameter Logistic Model or Sigmoidal Dose-Response Model to calculate the IC50 values.
(§2) The cell viability assay was first performed with the TOR kinase inhibitor and the individual second active agents, to determine the dose range for subsequent combination studies. […] The TOR kinase inhibitor and the second active agent were each added to one well containing a final concentration of 0.2% DMSO (in triplicate). In the same plate in triplicate, the cells were treated with the TOR kinase inhibitor and each second active agent either simultaneously or sequentially (containing 0.2% DMSO). The number of cells affected by compound treatment was normalized to the DMSO control (100% viability) and the data was imported into the CalcuSyn software (V2.1, Biosoft). Synergism was quantitated by the combination index (CI) using CalcuSyn according to Chou-Talalay's CI method with mathematical modeling and simulations. […] ED50 is the median effect dose at which a 50% growth inhibition is achieved.

Ovcar-3 = test: as above; type: cell-based; conditions: combination with VIDAZA, 3 days, CalcuSyn, Chou-Talalay
Description: as §1, §2

Ovcar-4 = test: as above; type: cell-based; conditions: combination with VIDAZA, 3 days, CalcuSyn, Chou-Talalay
Description: as §1, §2

Ovcar-5 = test: as above; type: cell-based; conditions: combination with VIDAZA, 3 days, CalcuSyn, Chou-Talalay
Description: as §1, §2

Ovcar-8 = test: as above; type: cell-based; conditions: combination with VIDAZA, 3 days, CalcuSyn, Chou-Talalay
Description: as §1, §2

HepG2 cells = test: Anchorage independent growth (colony formation) assay; type: cell-based, Human; conditions: single agent; for colony formation: 8 days
Description: (§3) The effect of Compound 1 on anchorage-independent growth (AIG) was assessed by colony formation assay in 2 Human Hepatocellular Carcinoma (“HHC”) cell lines, HepG2 and SK-Hep-1.
(§4) Cell Lines/Cells. Human cell lines HepG2 and SK-Hep-1 cells were obtained from American Type Culture Collection (ATCC; Manassas, Va.). Cells were cultured in DMEM (Dulbecco's Modified Eagle's Medium) (Mediatech; Mannasas, Va.) with 10% Premium FBS (Lonza, Walkersville, Md.).
(§5) (1) Single Agent Colony Formation Assay. Nobel Agar (1.2 grams; BD; Franklin Lakes, N.J.) was placed in a 100-mL sterile bottle. Sterile water (100 mL) was added and microwaved until the agar boiled. Equal volumes of agar and 2×RPMI medium (ECE Scientific; Doylestown, Pa.) were mixed and 300 μL were transferred to each well in a 24-well flat bottom plate (BD; Franklin Lakes, N.J.). Plates were kept at 4° C. until the agar solidified. Cultures of HepG2 and SK-Hep-1 cells were harvested and resuspended in culture medium at 3.6×10^3 cells/mL. Equal volumes of agar, 2×RPMI, and cell suspension (1:1:1) were mixed in a sterile tube and 500 μL/well were immediately transferred into the 24-well plates. Plates were kept at 4° C. until the agar solidified. Culture medium (500 μL) containing compound or DMSO was added to each well (final DMSO concentration for each treatment was 0.2%). Compound 1 was tested at final concentrations of 0.1, 0.3, 1, 3, 10 and 30 μM. 5-AZA was tested at final concentrations of 1, 3 and 10 μM. Cell treatments were set up in triplicate. Cells were incubated for 8-10 days at 37° C. in a 5% CO2 atmosphere. Photographs (2× magnification) of each well were taken using a Nikon DXM1200 Digital Camera and Nikon ACT1 software and saved as a TIFF file. ImageQuant TL (GE Healthcare; Piscataway, N.J.) Colony Count Software was used to count colonies. (2) Combination Study Colony Formation Assay. Nobel Agar (1.2 grams; BD; Franklin Lakes, N.J.) was placed in a 100-mL sterile bottle. Sterile water (100 mL) was added and microwaved until the agar boiled. Equal volumes of agar and 2×RPMI medium (ECE Scientific; Doylestown, Pa.) were mixed and 300 μL were transferred to each well in a 24-well flat bottom plate (BD; Franklin Lakes, N.J.). Plates were kept at 4° C. until the agar solidified. Cultures of HepG2 and SK-Hep-1 cells were harvested and resuspended in culture medium at 3.6×10^3 cells/mL. Equal volumes of agar, 2×RPMI, and cell suspension (1:1:1) were mixed in a sterile tube and 500 μL/well were immediately transferred into the 24-well plates. Plates were kept at 4° C. until the agar solidified. Culture medium (500 μL) containing compound or DMSO was added to each well (final DMSO concentration for each treatment was 0.2%). Cells were treated with single treatment as follows: Compound 1 was tested at final concentrations of 0.1 and 0.3 μM. 5-AZA was tested at 3 μM. Combinations of Compound 1 at 0.1 and 0.3 μM were tested with 3 μM 5-AZA. Cell treatments were set up in triplicate. Cells were incubated for 8-10 days at 37° C. in a 5% CO2 atmosphere. Photographs (2× magnification) of each well were taken using a Nikon DXM1200 Digital Camera and Nikon ACT1 software and saved as a TIFF file. ImageQuant TL (GE Healthcare; Piscataway, N.J.) Colony Count Software was used to count colonies.
(§6) Significance versus the DMSO control was calculated using One Way ANOVA and Dunnett's Post test or unpaired t tests using GraphPad Prism v5.01. To evaluate the combinatory effect, data from the three independent experiments were analyzed by comparing the combinatory response against the theoretical additive response of the two agents.

SK-Hep-1 cells = test: as above; type: cell-based, Human; conditions: single agent
Description: as §3, §4, §5, §6

[1] = test system: seventeen breast cancer cell line panel; test: Anti-proliferation assay (ATPLite), breast cancer cell line panel; type: cell-based; conditions: cell lines where inhibition levels greater than fifty percent were reached; 72 h; read-out: median GI50
Description: Cells were thawed from a liquid nitrogen preserved state. Once cells expanded and divided at their expected doubling times, screening began.
Cells were equilibrated in assay plates via centrifugation and placed in incubators attached to the Dosing Modules at 37° C. for twenty-four hours before treatment. […] These T zero (T0) plates were read using ultra-sensitive luminescence on Envision Plate Readers. Treated assay plates were incubated with compound (single compound or combination) for seventy-two hours. After seventy-two hours, plates were developed for endpoint analysis using ATPLite. All data points were collected via automated processes; quality controlled; and analyzed. Assay plates were accepted if they passed the following quality control standards: relative luciferase values were consistent throughout the entire experiment, Z-factor scores were greater than 0.6, untreated/vehicle controls behaved consistently on the plate. The calculation for synergy score is provided below.
Growth Inhibition (GI) was used as a measure of cell viability. The cell viability of vehicle was measured at the time of dosing (T0) and after seventy-two hours (T72). A GI reading of 0% represents no growth inhibition—cells treated with compound and T72 vehicle signals are matched. […] GI was calculated by applying the following test and equation: If T<V0:100*[1−(T−V0)/V0] […]

[2] = test system: subjects with higher-risk MDS; conditions: Phase III study, administered subcutaneously; cited from earlier work
[3] = concentrations of 0.1 to 100 μM

In the case of Cc1nc(-c2nnc[nH]2)ccc1-c1cnc2c(n1)N(CCC1CCOCC1)C(=O)CN2 [Compound 3, 7-(2-methyl-6-(4H-1,2,4-triazol-3-yl)pyridin-3-yl)-1-(2-(tetrahydro-2H-pyran-4-yl)ethyl)-3,4-dihydropyrazino[2,3-b]pyrazin-2(1H)-one], the “Combination index (CI) at the ED50” value (Caov-3) is reported as 0.92, the “Combination index (CI) at the ED50” value (Ovcar-3) is reported as 0.55 and the “Combination index (CI) at the ED50” value (Ovcar-4) is reported as 0.61. For the same molecule, the “Combination index (CI) at the ED50” value (Ovcar-5) was 0.76 and the “Combination index (CI) at the ED50” value (Ovcar-8) was 0.81.
In the case of CO[C@H]1CC[C@H](N2C(=O)CNc3ncc(-c4ccc(C(C)(C)O)nc4)nc32)CC1 [Compound 1, 7-(6-(2-hydroxypropan-2-yl)pyridin-3-yl)-1-((1r,4r)-4-methoxycyclohexyl)-3,4-dihydropyrazino-[2,3-b]pyrazin-2(1H)-one], the “Combination index (CI) at the ED50” value (Caov-3) is reported as 1.08, the “Combination index (CI) at the ED50” value (Ovcar-3) is reported as 1.23 and the “Combination index (CI) at the ED50” value (Ovcar-4) is reported as 0.99. The “Combination index (CI) at the ED50” value (Ovcar-5) was 0.92, the “Combination index (CI) at the ED50” value (Ovcar-8) was 0.99 and the colony formation (HepG2 cells; 0.1 μM) was 74 % of control. For the same molecule, the colony formation (HepG2 cells; 0.3 μM) was 57 % of control, the colony formation (HepG2 cells; 1 μM) was 33 % of control and the colony formation (HepG2 cells; 3 μM) was 24 % of control. For the same molecule, the colony formation (HepG2 cells; 10 μM) was 16 % of control, the colony formation (HepG2 cells; 30 μM) was 11 % of control and the anti-colony forming activity (HepG2 cells; [3]) was “dose-dependent and significant anti-colony forming activity”. The “inhibition of colony formation” value (SK-Hep-1 cells; 3 μM and higher) was 100%, the colony formation (SK-Hep-1 cells; 0.3-30 μM, 8-10 days) was 0-45 % of control and the anti-colony forming activity (SK-Hep-1 cells; [3]) was “dose-dependent and significant anti-colony forming activity”.
Work on CCN1C(=O)CNc2ncc(-c3ccc(-c4nc[nH]n4)nc3C)nc21 [Compound 2, 1-ethyl-7-(2-methyl-6-(1H-1,2,4-triazol-3-yl)pyridin-3-yl)-3,4-dihydropyrazino[2,3-b]pyrazin-2(1H)-one] yielded a GI50 [1] of 140 nM.
For Nc1ncn([C@@H]2O[C@H](CO)[C@@H](O)[C@H]2O)c(=O)n1 [Compound 5-AZA, 4-amino-1-β-D-ribofuranosyl-1,3,5-triazin-2(1H)-one, reference compound], the colony formation (HepG2 cells; at 1, 3 and 10 μM) is listed as 43-76 % of control, the colony formation (SK-Hep-1 cells; 10 μM, 8 days) is listed as 38 % of control and the “survival and time to AML transformation or death” value [2] is listed as “significantly prolonged survival and time to AML transformation or death”.
